Source: publication PMC6498537, “Biomimetic synthesis of the natural product salviadione and its hybrids: discovery of tissue-specific anti-inflammatory agents for acute lung injury” (Chemical Science, 2019)
Read-outs that look alike come from different tables or passages of the source. One block for each molecule: values may come before it.

Tests used:
[1] = Liver microsomal stability assay, human; format: in vitro ADME; details: for Clint in vitro / half-life at 0.1 μM: human liver microsomes; for half-life at 0.1 μM: pH 7.4
Method: (§1) Liver Microsomal Stability Assay. Microsomes in 0.1 M TRIS buffer pH 7.4 (final concentration 0.33 mg/mL), co-factor MgCl2 (final concentration 5 mM) and tested compound (final concentration 0.1 μM, co-solvent (0.01% DMSO) and 0.005% Bovin serum albumin) were incubated at 37°C for 10min. The reaction was started by the addition of NADPH (final concentration 1 mM). Aliquots were sampled at 0, 7, 17, 30 and 60 min, respectively, and methanol (cold in 4 °C) was added to terminate the […]
(§2) reaction. […]

[2] = design: method as in PMID 17504222; details: literature value for 2; ref 8a; cited from earlier work
[3] = Liver microsomal stability assay, rat; format: in vitro ADME; details: rat liver microsomes; for half-life at 0.1 μM: pH 7.4
Method: as §1, §2

[4] = Preliminary pharmacokinetic parameters (p.o. and i.v.); format: in vivo; details: for MRT inf: read-out: MRTINF_obs
Method: Table S4. Preliminary Pharmacokinetic Parameters for Compound 15a a-c
T1/2 Tma Cmax AUC CL_obs MRTINF_obs Vss_obs F […]
aValues are the average of three runs. Vehicle: DMSO, Tween 80, normal saline. CL, clearance; Vss, volume of distribution; T1/2, half-life; Cmax, maximum concentration; Tmax, time of maximum concentration; MRT, mean residence time; AUC, area under the plasma concentration time curve; F, oral bioavailability. bDose: p.o. at 3.0 mg/kg; cDose: i.v. at 1.0

LPS-induced IL-6 release = LPS-induced IL-6 release in mouse primary peritoneal macrophages (ELISA); format: cell-based; details: Peritoneal macrophage, LPS (0.5 μg/mL) 24 h, 30 min pretreatment, read-out: IC50 against the release of IL-6
Method: (§3) Figure S3. Inhibitory activity of the benzo[def]carbazole-3,5-diones against LPS-induced TNF-α and IL-6 secretion in mouse peritoneal macrophages. Macrophages were plated at a density of 5 × 10^5/plate for overnight at 37 °C and in 5% CO2. Cells were pretreated with 5 or tanshinone analogues (10 μM) for 30 min, then treated with LPS (0.5 μg/mL) for 24 h. L6H21 (19) was used as a positive control. TNF-α and IL-6 levels in the culture medium were measured by ELISA and were normalized by the total protein level. The results were presented as the percent of LPS control. Each bar represents the mean ± SD of three independent experiments.
(§4) Statistical significance relative to the LPS group is indicated: ∗ , p < 0.05; ∗∗, p < 0.01.
(§5) (1 picture or pasted object on this page, not shown here)
(§6) Figure S5. […]
(§7) 30 min, then treated with LPS (0.5 μg/mL) for 24 h. IL-6 and TNF-α levels in the culture media were measured by ELISA and were normalized by the total protein. The results were expressed as the percent of LPS. […]
(§8) Determination of TNF-α and IL-6. The levels of TNF-α and IL-6 in medium, bronchoalveolar lavage fluid (BALF) and serum were determined with an ELISA kit (eBioScience, San Diego, CA) according to the manufacturer’s instructions. The total amount of the inflammatory factor in the medium was normalized to the total protein quantity of the viable cell pellets. […]

[5] = Tissue distribution after single intravenous administration; format: in vivo, SD rats; details: iv 2 mg kg^–1, rat
Method: Tissue Distribution Assay. Compound 15a (2 mg/kg) dissolved in PEG300/EtOH/NaCl(40/10/50, v/v/v)to a concentration of 0.4 mg/mL, and was […]
given to SD rats (Male, 180–220 g, three groups with three rats in each group) by intravenous administration. Blood samples and the important tissues including heart, liver, lung, kidney, and brain were collected at 0.25, 2 and 12 h after administration (anticoagulant: EDTA-Na2). For plasma samples, 250 μL of solvent of methanol: acetonitrile (1:1, v/v) with internal standard was added to 50 μL of plasma and vortexed thoroughly. For tissue samples, three times the weight of volume of PBS were added, then homogenized. The homogenates were precipitated by five times of methanol: acetonitrile (1:1, v/v) with internal standard. They were centrifuged for 5 min, and then 20 μL of the supernatant was mixed with 20 μL of water for analysis. Samples were analyzed by AB6500 triple quadrupole mass spectrometer (AB Sciex, USA). The ACQUITY UPLC BEH C18 (1.7 μm, 2.0 mm × 50 mm, Waters, USA) was used for the analysis. Gradient elution was applied consisting of ultrapure water containing 0.1% formic acid and acetonitrile containing 0.1% formic acid. […]

[6] = test system: LPS-induced TNF-α release; assay: LPS-induced TNF-α release in mouse primary peritoneal macrophages (ELISA); format: cell-based; details: Peritoneal macrophage, LPS (0.5 μg/mL) 24 h, 30 min pretreatment, read-out: IC50 against the release of TNF-α
Method: as §3, §4, §5, §6, §7, §8

[7] = molecular target: T1, hERG potassium ion channel (Homo sapiens, UniProt Q12809); assay: hERG cardiotoxicity assay (manual patch clamp, HEK293); format: cell-based; details: whole-cell patch clamp, read-out: hERG inhibition IC50
T1 construct: expressed in transfected cells; host or cells: HEK293 (human embryonic kidney cells stably expressing hERG channels)
Method: hERG Cardiotoxicity Assay. The human embryonic kidney cells stably expressing hERG channels were used in the study.
vehicle control were delivered separately to the clamped cells by a 6-channel perfusion system. The hERG channel tail currents were recorded by clampex 10.3. The data were collected and analyzed by clampfit 10.3. The peak of the tail currents in the presence of positive control and test article were normalized with the currents recorded in the presence of corresponding vehicle control as 100 %, respectively. The IC50 value was calculated using GraphPad Prism 5.00.

LPS-induced ALI in mice = assay: LPS-induced acute lung injury (ALI) in mice; format: in vivo
Method: LPS-Induced Acute Lung Injury (ALI) in B6 Mice. Compound 15a was first
dissolved with macrogol 15 hydroxystearate (a nonionic solubilizer for injection from
BASF) with or without medium chain triglycerides (MCT, from BASF) in a water bath
at 37 °C. The concentration of compound was 2 mg/mL. The concentration of
solubilizer was 5−10%, and that for MCT was 0.5−2% in final solution. For the vehicle,
the mixture of solubilizer and MCT was prepared at 10% and 2%, respectively. Mice,
weighing 20−24 g, were randomized to the following three groups of seven animals
each: CON group, LPS group, 15a + LPS group. 15a + LPS group mice were pretreated
with compounds in a water solution (5 mg/kg) by i.v injection 15 min before 5 mg/kg
of LPS was administered by intratracheal instillation. The animals in CON group
received a similar volume of vehicle. After 6 hours, mice were euthanized to collect the
BALF, serum and lung tissue samples. […]
Determination Total Protein Concentration and Number of Neutrophils in BALF.
Bronchoalveolar lavage fluid (BALF) cells and supernatant were separated by
centrifugal separation at 4 °C and 3,000 rpm for 10 minutes. Total protein concentration
in supernatant of BALF was measured using a coomassie blue staining assay kit
according to the manufacturer's instructions. The cells of BALF were resuspended in
40 μL of physiological saline and used for neutrophil cell counts by Wright–Giemsa
Serum Analysis. Blood was collected from mice at sacrifice and was centrifuged at 4
°C and 12,000 rpm for 10 minutes. […]
Real-Time Quantitative PCR. Lung tissues were homogenized in TRIZOL kit
(Invitrogen, Carlsbad, CA) for extraction of RNA according to each manufacturer’s
protocol. Both reverse transcription and quantitative PCR were carried out using a two-
step M-MLV Platinum SYBR Green qPCR SuperMix-UDG kit (Invitrogen, Carlsbad,
CA). Eppendorf Mastercycler ep realplex detection system (Eppendorf, Hamburg,
Germany) was used for RT-qPCR analysis. The primers of genes including TNF-α,
IL-6, IL-1β, ICAM-1, and β-actin were synthesized by Invitrogen. The primer
sequences of mouse genes used are shown as follows:
TNF-α sense primer, 5′-[…]-3
TNF-α antisense primer, 5′-[…]-3′;
IL-6 sense primer, 5′-[…]-3′;
IL-6 antisense primer, 5′-[…]-3′;
IL-1β sense primer, 5′-[…]-3′;
IL-1β antisense primer, 5′-[…]-3′;
ICAM-1 sense primer, 5′-[…]-3′;
ICAM-1 antisense primer, 5′-[…]-3′;
β-actin sense primer, 5′-[…]-3′;
β-actin antisense primer, 5′-[…]-3′.
Statistical Analysis. The results are presented as the mean ±SD. The Student’s t test
was employed to analyze the differences between sets of data. Statistics were performed
using GraphPad Pro (GraphPad, San Diego, CA). P values less than 0.05 (p < 0.05)

[8] = pretreatment 5 mg kg^–1 i.v., LPS, 6 h

T1 sequence (Q12809 whole entry): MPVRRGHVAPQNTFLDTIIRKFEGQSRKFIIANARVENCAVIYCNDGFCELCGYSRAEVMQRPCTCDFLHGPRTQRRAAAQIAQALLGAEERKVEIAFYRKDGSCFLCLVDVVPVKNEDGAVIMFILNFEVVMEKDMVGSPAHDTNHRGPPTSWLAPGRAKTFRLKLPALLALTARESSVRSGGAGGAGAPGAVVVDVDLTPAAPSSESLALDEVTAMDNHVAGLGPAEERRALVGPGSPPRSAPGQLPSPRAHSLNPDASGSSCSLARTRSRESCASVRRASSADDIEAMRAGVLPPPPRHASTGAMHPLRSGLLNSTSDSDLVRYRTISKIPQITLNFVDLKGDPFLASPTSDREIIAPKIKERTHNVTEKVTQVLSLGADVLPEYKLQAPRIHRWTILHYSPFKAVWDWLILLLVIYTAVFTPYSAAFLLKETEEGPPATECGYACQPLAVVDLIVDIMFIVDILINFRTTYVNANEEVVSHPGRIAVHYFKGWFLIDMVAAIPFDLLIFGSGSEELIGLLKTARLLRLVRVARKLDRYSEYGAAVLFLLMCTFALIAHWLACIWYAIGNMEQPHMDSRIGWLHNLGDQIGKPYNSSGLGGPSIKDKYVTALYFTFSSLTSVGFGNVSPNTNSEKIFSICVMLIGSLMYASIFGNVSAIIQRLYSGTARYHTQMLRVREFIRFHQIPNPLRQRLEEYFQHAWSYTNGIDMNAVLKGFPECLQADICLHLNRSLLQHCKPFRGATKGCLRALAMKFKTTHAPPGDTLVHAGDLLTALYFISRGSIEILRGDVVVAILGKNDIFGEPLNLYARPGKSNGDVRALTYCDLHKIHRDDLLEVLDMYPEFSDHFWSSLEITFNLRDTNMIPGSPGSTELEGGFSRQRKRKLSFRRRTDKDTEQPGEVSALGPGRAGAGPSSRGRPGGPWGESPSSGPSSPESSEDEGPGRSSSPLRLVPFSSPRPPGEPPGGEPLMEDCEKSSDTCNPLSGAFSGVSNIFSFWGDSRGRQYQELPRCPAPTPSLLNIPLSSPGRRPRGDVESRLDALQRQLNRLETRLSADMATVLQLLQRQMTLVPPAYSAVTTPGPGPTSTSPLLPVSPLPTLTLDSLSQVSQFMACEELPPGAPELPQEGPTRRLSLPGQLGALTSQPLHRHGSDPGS

Clint in vitro [1]: 277.17 mL min^–1 g^–1 protein | half-life at 0.1 μM [1]: 7.58 min | half-life at 0.1 μM [3]: 3.15 min | Clint in vitro [3]: 666.40 mL min^–1 g^–1 protein
Structure (SMILES): Cc1coc2c1C(=O)C(=O)c1c-2ccc2c1CCCC2(C)C [Compound 2, tanshinone IIA, reference compound]
F (oral bioavailability) [2]: < 3.5% | T1/2 [2]: 20.4 min

Vss_obs ([4]; iv, 1.0 mg/kg): 5.98 L/kg | AUC ([4]; plasma, iv, 1.0 mg/kg): 485 ng·h/mL | half-life ([4]; plasma, iv, 1.0 mg/kg): 300 min | clearance ([4]; plasma, iv, 1.0 mg/kg, read-out: CL_obs): 34.9 mL/min/kg | MRT inf ([4]; plasma, iv, 1.0 mg/kg): 179 min | AUC ([4]; plasma, po, 3.0 mg/kg): 426 ng·h/mL | Cmax ([4]; plasma, po, 3.0 mg/kg): 81.2 ng/mL | MRT inf ([4]; plasma, po, 3.0 mg/kg): 320 min | F (oral bioavailability) ([4]; po 3.0 mg/kg vs iv 1.0 mg/kg): 30.2% | T1/2 ([4]; po, 3.0 mg/kg): 243 min | Tma ([4]; po, 3.0 mg/kg): 1.83 h | IC50 (LPS-induced IL-6 release): 1.62 µM | Concentration in brain ([5]; 0.25 h): 224 ng g^–1 | Concentration in heart ([5]; 0.25 h): 992 ng g^–1 | Concentration in heart plasma ([5]; 0.25 h): 144 ng mL^–1 | Concentration in kidney ([5]; 0.25 h): 806 ng g^–1 | Concentration in liver ([5]; 0.25 h): 2557 ng g^–1 | Concentration in lung ([5]; 0.25 h): 3320 ng g^–1 | Concentration in portal vein plasma ([5]; 0.25 h): 142 ng mL^–1 | Concentration in brain ([5]; 2 h): 93.9 ng g^–1 | Concentration in heart ([5]; 2 h): 223 ng g^–1 | Concentration in heart plasma ([5]; 2 h): 31.2 ng mL^–1 | Concentration in kidney ([5]; 2 h): 187 ng g^–1 | Concentration in liver ([5]; 2 h): 518 ng g^–1 | Concentration in lung ([5]; 2 h): 847 ng g^–1 | Concentration in portal vein plasma ([5]; 2 h): 33.1 ng mL^–1 | Concentration in brain ([5]; 12 h): 3.11 ng g^–1 | Concentration in heart ([5]; 12 h): 19.8 ng g^–1 | Concentration in heart plasma ([5]; 12 h): 1.90 ng mL^–1 | Concentration in kidney ([5]; 12 h): 33.0 ng g^–1 | Concentration in liver ([5]; 12 h): 57.3 ng g^–1 | Concentration in lung ([5]; 12 h): 633 ng g^–1 | Concentration in portal vein plasma ([5]; 12 h): 2.04 ng mL^–1 | lung drug concentration relative to other tissues ([5]; 12 h): 11 to 300 times | IC50 [6]: 6.37 µM | enhancement of metabolic stability compared to 2 ([1]; human and rat microsomes): 4- to 7 fold | Clint in vitro [1]: 61.62 mL min^–1 g^–1 protein | half-life at 0.1 μM [1]: 34.1 min | half-life at 0.1 μM [3]: 23.5 min | Clint in vitro [3]: 89.44 mL min^–1 g^–1 protein
Structure (SMILES): Cc1coc2c1C(=O)c1c3c-2ccc2c3c(n1Cc1ccccc1)C(=O)CC2(C)C [Compound 15a]
IC50 [7]: > 40 µM | mRNA expression of TNF-α, IL-6, IL-1β and ICAM-1 in lung tissue (RT-qPCR) (LPS-induced ALI in mice; LPS-treated lung tissues, 5 mg/kg i.v.): markedly suppressed | lung wet/dry weight ratio (lung edema) (LPS-induced ALI in mice; pretreatment 5 mg kg^–1 i.v., 15 min before LPS 5 mg/kg intratracheal, 6 h): effectively reduced | lung macrophage infiltration (CD68 immunostaining) (LPS-induced ALI in mice; pretreatment 5 mg kg^–1 i.v., LPS): significantly attenuated | histopathological features of lung (H&E) (LPS-induced ALI in mice; [8]): very little histopathological changes | level of IL-6 in BALF (LPS-induced ALI in mice; [8]): distinctly suppressed | level of IL-6 in serum (LPS-induced ALI in mice; [8]): no significant inhibition | level of TNF-α in BALF (LPS-induced ALI in mice; [8]): distinctly suppressed | level of TNF-α in serum (LPS-induced ALI in mice; [8]): no significant inhibition | number of neutrophils in BALF (LPS-induced ALI in mice; [8]): significantly decreased | protein concentration in BALF (LPS-induced ALI in mice; [8]): significantly inhibited
